{"source": "paper PMC11173382", "about": "“In Vitro Investigations into the Potential Drug Interactions of Pseudoginsenoside DQ Mediated by Cytochrome P450 and Human Drug Transporters” (Molecules, 2024)", "type_in_all_cases": "in vitro ADME", "key": {"CYP2B6": {"molecular_target": "T1, CYP2B6 (Homo sapiens, UniProt P20813)", "T1 construct": "tissue Corning 452117; host or cells: human liver microsomes", "T1 sequence (P20813 1-491)": "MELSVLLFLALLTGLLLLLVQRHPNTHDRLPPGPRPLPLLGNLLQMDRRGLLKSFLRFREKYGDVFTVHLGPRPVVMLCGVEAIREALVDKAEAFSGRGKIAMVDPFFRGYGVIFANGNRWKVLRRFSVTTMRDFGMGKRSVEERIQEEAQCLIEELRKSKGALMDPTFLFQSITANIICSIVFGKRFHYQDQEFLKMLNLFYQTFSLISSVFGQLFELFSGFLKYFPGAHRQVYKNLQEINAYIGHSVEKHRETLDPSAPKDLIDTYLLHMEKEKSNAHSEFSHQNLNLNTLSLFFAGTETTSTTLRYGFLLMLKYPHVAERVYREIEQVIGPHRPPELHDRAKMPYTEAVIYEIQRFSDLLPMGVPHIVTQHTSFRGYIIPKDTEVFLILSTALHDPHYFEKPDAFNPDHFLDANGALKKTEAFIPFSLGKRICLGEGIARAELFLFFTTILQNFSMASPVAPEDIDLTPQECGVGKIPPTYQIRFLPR", "assay": "CYP450 inhibition assay in human liver microsomes, CYP2B6", "details": "HLM 0.1 mg/mL; probe bupropion 80 µM; 10 min", "procedure": "(§1) To evaluate the reliability and reproducibility of the CYP450 inhibition assay, we measured the inhibitory effects of selected positive control inhibitors of each CYP450 enzyme in human liver microsomes (HLM, Table 1, Figure 2). The potency of inhibition was estimated by observing the alteration in concentration of metabolites of CYP450 substrates (Table 1).\n(§2) Reagents preparation. […] The stock solution of PDQ (10 mM) was prepared with methanol and further diluted to the range of 3 µM to 3 mM with methanol to ensure that the solvent of different PDQ samples contained the same amount (1%) of methanol.\n(§3) The stock solutions of the positive control inhibitors and the probe substrates of CYP450 enzymes were prepared in methanol.\n(§4) CYP450 inhibition assay. […] The assay was conducted in polypropylene 96-well plates (2.2 mL/well, Apricot Designs Inc., Covina, CA, USA).\n(§5) The total volume of the reaction is 200 μL. […] The substrates and analytes were analyzed by LC-MS/MS (API4000, Applied Biosystems, Singapore; HPLC, Shimadzu, Japan). […]\n(§6) Data analysis. […] The IC50 was determined by fitting the dependence of the relative remaining activity (y = Vi/V0) to the following three-parameter equation (Equation (1)). […]"}, "CYP2C8": {"molecular_target": "T2, CYP2C8 (Homo sapiens, UniProt P10632)", "T2 sequence (P10632 1-490)": "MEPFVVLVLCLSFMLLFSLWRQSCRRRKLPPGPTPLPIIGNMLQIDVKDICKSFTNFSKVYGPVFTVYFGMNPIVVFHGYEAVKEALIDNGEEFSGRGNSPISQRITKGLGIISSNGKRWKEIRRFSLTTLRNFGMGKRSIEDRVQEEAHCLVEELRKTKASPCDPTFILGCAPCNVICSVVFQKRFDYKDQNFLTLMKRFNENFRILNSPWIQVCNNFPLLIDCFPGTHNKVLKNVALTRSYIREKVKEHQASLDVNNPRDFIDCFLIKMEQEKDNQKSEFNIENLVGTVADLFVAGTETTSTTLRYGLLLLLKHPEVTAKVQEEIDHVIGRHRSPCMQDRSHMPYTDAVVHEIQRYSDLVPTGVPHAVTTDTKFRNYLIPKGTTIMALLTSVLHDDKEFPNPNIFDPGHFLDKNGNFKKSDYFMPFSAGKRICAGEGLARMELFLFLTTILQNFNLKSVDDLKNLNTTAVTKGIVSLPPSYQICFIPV", "assay": "CYP450 inhibition assay in human liver microsomes, CYP2C8", "details": "HLM 0.1 mg/mL; probe amodiaquine 2 µM; 10 min", "procedure": "as §1, §2, §3, §4, §5, §6"}, "CYP3A4": {"molecular_target": "T3, CYP3A4 (Homo sapiens, UniProt P08684)", "T3 construct": "tissue Corning 452117; host or cells: human liver microsomes", "T3 sequence (P08684 whole entry)": "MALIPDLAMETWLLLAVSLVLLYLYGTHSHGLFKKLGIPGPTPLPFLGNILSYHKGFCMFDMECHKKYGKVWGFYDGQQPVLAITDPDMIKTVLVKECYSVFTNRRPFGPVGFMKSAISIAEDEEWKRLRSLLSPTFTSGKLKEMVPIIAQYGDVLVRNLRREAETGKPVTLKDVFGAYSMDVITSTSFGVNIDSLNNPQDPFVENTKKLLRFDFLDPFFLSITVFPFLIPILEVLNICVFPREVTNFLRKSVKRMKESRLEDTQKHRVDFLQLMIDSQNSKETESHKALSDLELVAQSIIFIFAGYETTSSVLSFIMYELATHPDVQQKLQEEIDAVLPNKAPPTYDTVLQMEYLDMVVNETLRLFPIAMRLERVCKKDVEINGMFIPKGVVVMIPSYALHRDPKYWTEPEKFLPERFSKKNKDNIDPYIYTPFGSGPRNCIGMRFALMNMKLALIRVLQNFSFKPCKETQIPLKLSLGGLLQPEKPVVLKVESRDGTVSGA", "assay": "CYP450 inhibition assay in human liver microsomes, CYP3A4 (midazolam and testosterone)", "procedure": "as §1, §2, §3, §4\nThe total volume of the reaction is 200 μL. The HLM mixtures (102 μL) containing individual probe substrates (Table 3), KH2PO4 buffer (100 mM, pH 7.4), and either PDQ or the positive control inhibitors (Table 3) were incubated for 10 min at 37 °C in a shaking incubator. Reactions were initiated by adding 98 μL NADPH (final concentration is 1.3 mM NADPH, 3 mM MgCl2 in 100 mM KH2PO4 buffer). The HLM reaction mixtures were shaken at 37 °C for various times (Table 4). The reaction time of CYP3A4 (midazolam), CYP2C19 and CYP2D6 were 3, 20 and 20 min, respectively, while the reactions of other CYP enzymes were terminated after 10 min. The reactions were quenched by adding 200 μL acetonitrile containing 3% formic acid and specific internal standards (Table 4). After shaking at 1000 rpm for 10 min, the reaction mixtures were centrifuged at 4000 rpm for 20 min. Supernatants were diluted with ultrapure water (Table 4) and shaken for 10 min at 1000 rpm. […] The substrates and analytes were analyzed by LC-MS/MS (API4000, Applied Biosystems, Singapore; HPLC, Shimadzu, Japan). […]\nas §6"}}, "note": "pIC50: −log10 of the molar value. Like-named read-outs stand apart in the source and are kept apart here.", "data": [{"smiles": "CC(C)(O)[C@@H]1CC[C@@](C)([C@H]2CC[C@]3(C)[C@@H]2[C@H](O)C[C@@H]2[C@@]4(C)CC[C@H](O)C(C)(C)[C@@H]4CC[C@]23C)O1", "note": "[PDQ, (20S,24S)-dammar-20,24-epoxy-3β, 12β, 25-triol]", "values": [{"measurement": "pIC50", "setting": "CYP2B6", "result": 4.34}, {"measurement": "pIC50", "setting": "CYP2C8", "result": 4.79}, {"measurement": "pIC50", "setting": "CYP3A4; HLM 0.1 mg/mL, probe midazolam 2 µM, 3 min, read-out: IC50 on CYP3A4 (Midazolam)", "result": 5.69}, {"measurement": "pIC50", "setting": "CYP3A4; HLM 0.1 mg/mL, probe testosterone 40 µM, 10 min, read-out: IC50 on CYP3A4 (Testosterone)", "result": 5.17}, {"measurement": "pIC50", "setting": "CYP3A4; HLM, midazolam and testosterone as substrates, read-out: IC50 on CYP3A4 (range over both substrates)", "result": "5.17 to 5.69"}]}]}
